Values quoted from earlier work, collected in patent US5612056A, “Transdermal formulations” (priority 1991, dated 1997).

What was measured:
[1] = test system: blood cholinesterase; conditions: human, in vivo, iv
[2] = guinea pig, in vivo

What does the source list for CNC(=O)Oc1ccc2c(c1)[C@]1(C)CCN(C)[C@@H]1N2C [physostigmine]?
blood cholinesterase inhibition [1]: approximately 30%; plasma half life [2]: 40 to 50 min
